Assay results from patent US8614203B2, “Methods for the treatment of a central nervous system injury via a tapered administration protocol” (Emory University, priority 2005, dated 2013).

Key:
BDNF = assay: Example 3: Western blot of brain tissue, BDNF; assay type: in vivo, Sprague-Dawley rats; conditions: TWI vs AWI vs VI, 3 weeks post-injury
Protocol: Male Sprague-Dawley rats received either medial frontal cortex injury or sham surgery. Injections were given 1 and 6 hours post-injury, and every 24 hours for 7 days. Treatment groups (n=8) encompassed injured (I) and sham (S) acute withdrawal (AW), tapered withdrawal (TW) and vehicle (V) treatments. TW injections were progressively halved over the final two treatments. Behavioral testing was conducted post-surgery, mid- and post-withdrawal. Activity boxes were used to investigate vertical movements and exploration: Sensory neglect and anxiety behaviors were also analyzed. Brain harvesting was performed at 8 days or 3 weeks post-injury. Perfused tissue sections were analyzed for lesion volume and immunohistochemical response. Fresh brain tissue was flash frozen in chilled 2-methyl butane, and then homogenized for Western blot analysis.

[1] = tested on: bilateral contusions of the medial prefrontal cortex; assay: Example 1: Morris water maze (MWM) task after TBI; assay type: in vivo, Sprague-Dawley rats
Protocol: Male Sprague-Dawley rats (300 g) were housed individually in wire cages and kept on a reverse light-dark cycle (0800-2000 h). […] All procedures involving animals conformed to guidelines set forth in the Guide for the Care and Use of Laboratory Animals (U.S. Department of Health and Human Services, Pub no. 85-23, 1985) and were approved by the Emory University Institutional Animal Care and Use Committee.
Bilateral contusions of the medial prefrontal cortex were created by a pneumatic impactor device as previously described. Briefly, rats were given anesthetized with ketamine/xylazine (90 mg/kg; 10 mg/kg) and placed in a stereotaxic apparatus. A craniectomy (diameter 6 mm) was made over the midline of the prefrontal cortex with its center 1.5 mm AP to bregma. After removal of the bone, the tip of the impactor (diameter 5 mm) was moved to +3.0 mm AP; 1.0 mm ML (from bregma), and checked for adequate clearance. Trauma was produced by pneumatically activating the piston to impact −2.0 mm DV (from dura) at a velocity of 3 m/s with a brain contact time of 0.5 seconds.
Control animals received injections of vehicle at similar time-points. Animals were coded with regard to surgery and treatment to prevent experimenter bias during behavioral testing and histological examination.
Experienced individuals who were blind to treatment conditions of the study conducted all histological and behavioral analyses. All data were tested for normality and homoschedasticity before being analyzed by parametric analysis of variance (ANOVA). MWM results were analyzed using separate mixed-factorial (4 groups×5 days) analysis of variance (ANOVA) on each of the two 5-day testing periods (acquisition and retention respectively). Results of the BSN task were analyzed using the mixed-factorial ANOVA (4 groups×2 post-injury trials). Histological comparisons on mean densitometry recordings, area measurements, and cell counts were made using a one-way ANOVA. All between-group comparisons were made using multiple Tukey post-hoc tests (p<0.05) when the overall ANOVA was significant ([…]) between groups. Pearson r coefficients were calculated to determine whether significant correlations could be detected between histological (e.g., lesion size and cellular density) and behavioral parameters (e.g., acquisition and retention of the MWM task and measures of sensory neglect).
Beginning one week after surgery, spatial learning ability was assessed in the Morris water maze (MWM) task described previously. […] Animals were placed in the pool (nose facing the pool-wall) at one of four randomly determined starting positions (e.g.: N, S, E, W). […] Swim speed measures were recorded daily in order to delineate motor dysfunction from learning impairment.

traumatic brain injury = assay: Example 2: dose response, Morris water maze after TBI, cyclodextrin vehicle; assay type: in vivo
Protocol: Beginning one week after surgery, spatial learning ability was assessed in the Morris water maze (MWM) task described previously. Each animal was tested for a total of 10 days in two 5-day trial blocks (acquisition and retention respectively). Animals were placed in the pool (nose facing the pool-wall) at one of four randomly determined starting positions (e.g.: N, S, E, W). Each rat was allowed to swim freely in the pool until it found the hidden platform or until 90 seconds had elapsed. […] Once on the platform, animals were allowed to rest for 10 seconds and then removed from the pool and placed near a heat lamp for warmth. Each rat was given two trials per day with a 20-second intertrial interval (ITI). The dependent measures for this task were latency to find the hidden platform and swim strategy (e.g., percent of time spent in the inner vs. outer annuli). Swim speed measures were recorded daily in order to delineate motor dysfunction from learning impairment.
Surgery to induce a traumatic brain injury was performed as outlined in Example 1. Behavior testing using the Morris Water Maize was performed as outlined in Example 1 and the methods for the tactical adhesive removal were performed.

[2] = tested on: medial frontal cortex (MFC) injury or sham; assay: Example 4: somatosensory neglect of the forepaws; assay type: in vivo, Sprague-Dawley rats
Description: 60 male Sprague-Dawley rats weighing 290-310 g at the time of injury were used in this experiment. Food and water were provided ad libidum before and after surgery. Animals were handled and weighed daily from their arrival, seven days pre-surgery, to brain extraction three weeks post-surgery. Animals were handled in squads of 12, with n=10 per experimental condition. All animal procedures were approved by the Emory University Animal Care and Use Committee, Protocol #131-2002.
Isofluorane anesthesia was induced for four minutes and 45 seconds at 5% and maintained at 2.5%. Normal body temperature was maintained with a surgical heating pad placed beneath the sterile dressings. The scalp incision area was shaved and sterilized with iodine and isopropanol. A midline incision was made along the scalp and the fascia cleared to expose the surface of the skull. Medial, lateral, and dorsal stereotaxic coordinates were determined at bregma, and a 5-7 mm diameter bilateral craniotomy was performed mid-sagitally, 3 mm anterior to bregma. […] Sutures were used to close the incision after bleeding ceased. Animals were placed in individual heated, clean recovery cages until they awakened, and were returned to clean individual home cages with accessible moistened food pellets. Sham animals were anesthetized, and an incision was made at the top of the head. The fascia was cleared to expose bregma, then the incision was sutured closed. Sham surgeries were matched to lesion surgeries for all experimental conditions.
Sham (S) and lesion (L) animals were randomly assigned to one of three treatment groups: vehicle (VS, VL), acute withdrawal (AWS, AWL), and tapered withdrawal (TWS, TWL). […] Tapering was induced as halved dosages over the last two days of treatment. Dilutions for TW treatments were made with HBC stock. All injections were administered intraperitoneally at one hour post-injury, and subcutaneously at six hours post-injury and every 24 hours through the end of the treatment cycle. Five sets of 12 animals each were used, for a total n=10 for each experimental group over the entire experiment. Of these animals, all were used to acquire behavioral data, four samples were used for protein analysis, and six samples were used for histological analysis for each test condition.
Random order, blinded testing occurred under red light in a quiet environment at one and seven days post-withdrawal, one hour after locomoter activity testing. 1.3 cm diameter circular labels were placed on the left forepaw and the rat placed in the clear plexiglass testing box. The latency required for each rat to remove the sticker with its mouth was recorded, with maximum test duration of two minutes. Each animal was tested three times, with a rest period of two minutes between trials. The testing box was cleaned with 70% ethanol and dried between trials.
All results were expressed as the mean plus or minus the standard error of the mean. Statistical significance was set at p<0.05 for two-tailed tests, and data were analyzed using one-way analysis of variance (ANOVA) followed by LSD post hoc tests. F-values are presented as a preface to post-hoc analysis with all degrees of freedom for Western blotting at (5,18) and for behavior at (5,26).

CC(=O)[C@H]1CC[C@H]2[C@@H]3CCC4=CC(=O)CC[C@]4(C)[C@H]3CC[C@]12C [progesterone, pregn-4-ene-3,20-dione]
BDNF expression (BDNF): increased for TWI over AWI over VI at 3 weeks post-injury
MWM spatial learning performance, second 5-day trial block (retention) ([1]; 4 mg/kg in peanut oil, 5 days (LP5)): improved spatial learning performance
MWM spatial learning performance, initial 5-day acquisition phase ([1]; 4 mg/kg in peanut oil, LP3 and LP5 (all injured groups)): deficits in spatial learning performance as compared to control animals
thigmotaxic (wall-hugging) swim patterns in MWM ([1]; 4 mg/kg, 5 days (LP5), last 2 days of second phase of MWM testing): reduction of thigmotaxic behavior
swim speed in MWM ([1]; 4 mg/kg, LP3 and LP5, any day of testing): no between-group differences on swim speed measurements
Morris water maze performance (traumatic brain injury; high dose 32 mg/kg in a cyclodextrin-containing vehicle): did not show any beneficial effect
Morris water maze performance (traumatic brain injury; low dose 8 mg/kg in a cyclodextrin-containing vehicle): consistent improvement in Morris water maze performance
Morris water maze performance (traumatic brain injury; moderate dose 16 mg/kg in a cyclodextrin-containing vehicle): consistent improvement in Morris water maze performance
somatosensory neglect (latency to remove sticker) ([2]; 16 mg/kg in […] HBC, tapered withdrawal, lesion (TWL), one day and one week post-withdrawal): deficiencies were decreased compared to VL and AWL
somatosensory neglect (latency to remove sticker) ([2]; 16 mg/kg, acute withdrawal, lesion (AWL), one day and one week post-withdrawal): AWL and VL did not display differences
somatosensory neglect (latency to remove sticker) ([2]; 16 mg/kg, acute withdrawal, sham (AWS), one day post-withdrawal): elevated sensory deficiencies compared to the TWS and VS groups
somatosensory neglect (latency to remove sticker) ([2]; 16 mg/kg, acute withdrawal, sham (AWS), one week post-withdrawal): these differences were no longer evident
somatosensory neglect (latency to remove sticker) ([2]; tapered withdrawal, sham (TWS), one day and one week post-withdrawal): TWS and VS showed no differences
